Test results taken from patent US6426355B1, “Heterocyclic carboxamide-containing thiourea inhibitors of herpes viruses containing phenylenediamine group” (American Home Products, priority 1998, dated 2002).
In brackets after ≈: the same amount, converted by molar mass.

Tests used:
HSV-1 = assay: HSV Antiviral (ELISA) assay; type: cell-based; details: for IC50 (ug/ml) HSV: HSV-1 in Vero cells; for IC50: Human alphaherpesvirus 1, HSV-1 in Vero cells, read-out: IC50 (ug/ml) HSV
Method in brief: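 Vero cells in DMEM/2% FBS pretreated with compound 30 min before HSV-1 infection (MOI 0.006), then ~24 h at 37 °C. Viral gD detected by ELISA with β-galactosidase secondary and 4-methylumbelliferyl-galactoside (ex 365/em 450 nm); IC50 from fluorescence versus untreated infected cells.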

[1] = tested on: HCMV recombinant mutant virus (RV145); assay: HCMV microtiter plate assay (beta-glucuronidase reporter); type: cell-based, Human Cytomegalovirus; details: for IC50 (ug/ml) HCMV: HCMV in human foreskin fibroblasts; for IC50: Human betaherpesvirus 5, Fibroblast, read-out: IC50 (ug/ml) HCMV
Method in brief: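 Human foreskin fibroblasts were infected with RV145 in the presence of inhibitor. β-glucuronidase under a viral promoter served as the replication marker. At 96 h post-infection, lysates in pH 7.0 phosphate with Triton X-100/sarkosyl were assayed colorimetrically or fluorometrically, and IC50 was estimated from varying inhibitor amounts.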

VZV strain Ellen = assay: VZV Antiviral (ELISA) assay; type: cell-based; details: for IC50 (ug/ml) VZV / % inhibition 10 ug/ml VZV: VZV strain Ellen in HFF cells; for % inhibition 10 ug/ml VZV: at 10 ug/ml; for IC50: Human alphaherpesvirus 3, VZV strain Ellen in HFF cells, read-out: IC50 (ug/ml) VZV; for inhibition at 10 µg/mL: Human alphaherpesvirus 3, read-out: % inhibition 10 ug/ml VZV, at 10 ug/ml, VZV strain Ellen in HFF cells
Method in brief: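 Antiviral IC50 is derived by comparing fluorescence with and without compound after a three-day culture of VZV-infected plus uninfected foreskin fibroblasts. Replication is quantified by ELISA against glycoprotein II, using a β-galactosidase secondary and methyl umbelliferyl-β-D-galactoside.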

Row | Structure (SMILES) | IC50 (ug/ml) HSV (HSV-1) [µg/mL] | IC50 (ug/ml) HCMV [1] [µg/mL] | IC50 (ug/ml) VZV (VZV strain Ellen) [µg/mL] | % inhibition 10 ug/ml VZV (VZV strain Ellen) [%] | IC50 (HSV-1) [µg/mL] | IC50 [1] [µg/mL] | IC50 (VZV strain Ellen) [µg/mL] | inhibition at 10 µg/mL (VZV strain Ellen) [%]
1 | Nc1c(Cl)cc(C(F)(F)F)cc1NC(=S)Nc1ccc(NC(=O)c2ccco2)cc1 [Example 530] | 5 (≈ 11 µM) | 0.15 (≈ 0.33 µM) | 6 (≈ 13.2 µM) | 96 | – | – | – | –
2 | CCOC(=O)Nc1ccc(NC(=S)Nc2ccc(NC(=O)c3ccco3)cc2)cc1Cl [Example 398] | >10 | 0.13 (≈ 0.283 µM) | >10 | 5 | – | – | – | –
3 | O=C(Nc1ccc(NC(=S)NCCc2cccc(Cl)c2)cc1)c1csnn1 [Example 562] | >10 | 0.004 (≈ 0.00957 µM) | 8 (≈ 19.1 µM) | – | – | – | – | –
4 | O=C(Nc1ccc(NC(=S)NCc2ccc3c(c2)OCO3)cc1)c1csnn1 [Example 541] | 7 (≈ 16.9 µM) | 0.017 (≈ 0.0411 µM) | >10 | – | – | – | – | –
5 | CC(C)c1nc(C(=O)Nc2ccc(NC(=S)Nc3cc(Cl)cc(Cl)c3)cc2)cs1 [Example 1131, 2-Isopropyl-thiazole-4-carboxylic acid {4-[3-(3,5-dichloro-phenyl)-thioureido]-phenyl}-amide] | – | – | – | – | 2.2 (≈ 4.73 µM) | 1.5 (≈ 3.22 µM) | 9 (≈ 19.3 µM) | –
6 | CN(C)c1ccc(Cl)cc1NC(=S)Nc1ccc(NC(=O)c2ccco2)cc1 [Example 489] | 5 (≈ 12.1 µM) | 0.17 (≈ 0.41 µM) | 3.5 (≈ 8.44 µM) | 99 | – | – | – | –
7 | O=C(Nc1ccc(NC(=S)Nc2cc(N3CCC(O)C3)cc(C(F)(F)F)c2)cc1)c1csnn1 (stereo not shown) [Example 595] | >10 | 0.022 (≈ 0.0433 µM) | 3 (≈ 5.9 µM) | – | – | – | – | –
8 | CC(=O)Nc1ccc(NC(=S)Nc2ccc(NC(=O)c3ccco3)cc2)cc1Cl [Example 409] | >10 | 2 (≈ 4.66 µM) | >10 | 5 | – | – | – | –
9 | O=C(Nc1ccc(NC(=S)NCc2cc(C(F)(F)F)cc(C(F)(F)F)c2)cc1)c1csnn1 [Example 542] | >10 | 0.0011 (≈ 0.00218 µM) | >10 | – | – | – | – | –
10 | O=C(Nc1ccc(CNC(=S)Nc2cc(Cl)cc(Cl)c2)cc1)c1csnn1 [Example 635] | >10 | 0.15 (≈ 0.342 µM) | 4 (≈ 9.12 µM) | – | – | – | – | –
11 | Cc1cccc(NC(=S)Nc2ccc(NC(=O)c3csnn3)cc2)c1 [Example 456] | >10 | 0.07 (≈ 0.189 µM) | >10 | 12 | – | – | – | –
12 | O=C(Nc1ccc(NC(=S)Nc2cc(C(F)(F)F)cc(C(F)(F)F)c2)cc1)c1ccco1 [Example 516] | >10 | 0.04 (≈ 0.0845 µM) | >10 | 7 | – | – | – | –
13 | CN(c1ccc(NC(=S)Nc2ccc(NC(=O)c3csnn3)cc2)cc1Cl)C1CCCCC1 [Example 237] | >10 | 0.02 (≈ 0.0399 µM) | >10 | 17 | – | – | – | –
14 | COc1cc(OC)c(NC(=S)Nc2ccc(NC(=O)c3snnc3-c3ccoc3)cc2)cc1Cl [Example 288] | >10 | 4 (≈ 7.75 µM) | >10 | 30 | – | – | – | –
15 | CN(c1ccc(NC(=S)Nc2ccc(NC(=O)c3ccco3)cc2)cc1Cl)C1CCCCC1 [Example 246] | >10 | 0.05 (≈ 0.104 µM) | 4 (≈ 8.28 µM) | 37 | – | – | – | –
16 | COc1cc(NC(=S)Nc2ccc(NC(=O)c3ccco3)cc2)cc(OC)c1 [Example 467] | >10 | 0.12 (≈ 0.302 µM) | >15 | 93 | – | – | – | –
17 | CN(c1ccc(NC(=S)Nc2ccc(NC(=O)c3csnn3)cc2)cc1Cl)C1CCN(Cc2ccccc2)C1 (stereo not shown) [Example 905, [1,2,3]Thiadiazole-4-carboxylic acid [4-(3-{4-[(1-benzyl-pyrrolidin-3-yl)-methyl-amino]-3-chloro-phenyl}-thioureido)-phenyl]-amide] | – | – | – | – | 4 (≈ 6.92 µM) | 0.3 (≈ 0.519 µM) | 2 (≈ 3.46 µM) | 82
18 | O=C(Nc1ccc(NC(=S)NCCc2ccc(F)cc2)cc1)c1csnn1 [Example 555] | >10 | 0.008 (≈ 0.0199 µM) | 4 (≈ 9.96 µM) | – | – | – | – | –
19 | COc1cc(OC)c(NC(=S)Nc2ccc(NC(=O)c3ccco3)cc2)cc1Cl [Example 170] | >10 | 0.2 (≈ 0.463 µM) | >10 | 32 | – | – | – | –

Row | Structure (SMILES) | IC50 (ug/ml) HSV (HSV-1) [µg/mL] | IC50 (ug/ml) HCMV [1] [µg/mL] | IC50 (ug/ml) VZV (VZV strain Ellen) [µg/mL] | % inhibition 10 ug/ml VZV (VZV strain Ellen) [%] | IC50 (HSV-1) [µg/mL] | IC50 [1] [µg/mL] | IC50 (VZV strain Ellen) [µg/mL] | inhibition at 10 µg/mL (VZV strain Ellen) [%]
20 | CC(=O)Nc1cc(Cl)cc(NC(=S)Nc2ccc(NC(=O)c3csnn3)cc2)c1 [Example 644] | >10 | 0.03 (≈ 0.0671 µM) | 8 (≈ 17.9 µM) | – | – | – | – | –
21 | O=C(Nc1ccc(NC(=S)NCCOc2ccccc2)cc1)c1csnn1 [Example 627] | 10 (≈ 25 µM) | 0.014 (≈ 0.035 µM) | >10 | – | – | – | – | –
22 | O=C(Nc1ccc(NC(=S)Nc2ccc(F)c(C(F)(F)F)c2)cc1)c1csnn1 [Example 600] | >10 | 0.012 (≈ 0.0272 µM) | >10 | – | – | – | – | –
23 | CN(C)c1cccc(NC(=S)Nc2ccc(NC(=O)c3csnn3)cc2)c1 [Example 479] | >10 | 0.1 (≈ 0.251 µM) | >10 | 30 | – | – | – | –
24 | O=C(Nc1ccc(NC(=S)Nc2cccc(Cl)c2)cc1)c1ccco1 [Example 993, Furan-2-carboxylic acid {4-[3-(3-chloro-phenyl)-thioureido]-phenyl}-amide] | – | – | – | – | > 10 | 0.013 (≈ 0.035 µM) | > 10 | –
25 | NNC(=O)c1cccc(NC(=S)Nc2ccc(NC(=O)c3csnn3)cc2)c1 [Example 449] | >10 | 1.6 (≈ 3.87 µM) | >10 | – | – | – | – | –
26 | O=C(Nc1ccc(NC(=S)Nc2ccc(Cl)cc2)cc1)c1ccccc1F [Example 996, N-{4-[3-(4-Chloro-phenyl)-thioureido]-phenyl}-2-fluoro-benzamide] | – | – | – | – | 10 (≈ 25 µM) | 0.15 (≈ 0.375 µM) | > 10 | –
27 | O=C(Nc1ccc(NC(=S)Nc2ccc(NC(=O)c3ccco3)cc2)cc1Cl)c1ccccc1 [Example 403] | 6 (≈ 12.2 µM) | 0.09 (≈ 0.183 µM) | >15 | 108 | – | – | – | –
28 | O=C(Nc1ccc(NC(=S)NCCc2cc(C(F)(F)F)ccc2F)cc1)c1csnn1 [Example 767] | >10 | 0.006 (≈ 0.0128 µM) | 1 (≈ 2.13 µM) | – | – | – | – | –
29 | Nc1ccc(CCNC(=S)Nc2ccc(NC(=O)c3ccco3)cc2)cc1 [Example 603] | >10 | >0.5 | >10 | – | – | – | – | –
30 | COc1cc(OC)c(NC(=S)Nc2ccc(NC(=O)c3nnsc3C)cc2)cc1Cl [Example 279] | >10 | >10 | >10 | – | – | – | – | –
31 | O=C(Nc1ccc(NC(=S)NCc2cccc(Cl)c2)cc1)c1ccco1 [Example 510] | 8 (≈ 20.7 µM) | 0.04 (≈ 0.104 µM) | >10 | 19 | – | – | – | –
32 | O=C(Nc1ccc(NC(=O)c2csnn2)cc1)Nc1cc(Cl)cc(Cl)c1 [Example 86, [1,2,3]Thiadiazole-4-carboxylic acid {4-[3-(3,5-dichloro-phenyl)-ureido]-phenyl}-amide] | – | – | – | – | > 10 | 0.04 (≈ 0.098 µM) | > 10 | 32
33 | Cc1cccc(NC(=S)Nc2ccc(NC(=O)c3ccco3)cc2)c1 [Example 436] | 10 (≈ 28.5 µM) | 0.15 (≈ 0.427 µM) | >10 | – | – | – | – | –
34 | O=C(Nc1ccc(NC(=S)Nc2ccc3[nH]nnc3c2)cc1)c1ccco1 [Example 526] | >10 | 3 (≈ 7.93 µM) | 2.5 (≈ 6.61 µM) | 22 | – | – | – | –
35 | CN(C)c1c(Cl)cccc1NC(=S)Nc1ccc(NC(=O)c2ccco2)cc1 [Example 505] | 10 (≈ 24.1 µM) | 0.2 (≈ 0.482 µM) | 8 (≈ 19.3 µM) | 79 | – | – | – | –
36 | O=C(Nc1ccc(NC(=S)Nc2ccc(C(F)(F)F)c(Cl)c2)cc1)c1csnn1 [Example 960, [1,2,3]Thiadiazole-4-carboxylic acid {4-[3-(3-chloro-4-trifluoromethyl-phenyl)-thioureido]-phenyl}-amide] | – | – | – | – | > 10 | 0.03 (≈ 0.0655 µM) | > 10 | 58
37 | CN(C)c1ccc(CNC(=S)Nc2ccc(NC(=O)c3csnn3)cc2)cc1C(F)(F)F [Example 602] | >10 | 0.0015 (≈ 0.00312 µM) | >10 | – | – | – | – | –
